According to PMC4230943, “Mimicking Hypoxia to Treat Anemia: HIF-Stabilizer BAY 85-3934 (Molidustat) Stimulates Erythropoietin Production without Hypertensive Effects” (PLoS ONE, 2014):

Tests used:
[1] = system: cynomolgus monkeys; experiment: Comparison of BAY 85-3934 with rhEPO (single dose and 14-day repeat dose); assay type: in vivo, cynomolgus monkey
Description: Male and female cynomolgus monkeys (2.8–5.6 kg in body weight) were used, which were housed two per cage. Blood samples from conscious cynomolgus monkeys were taken by puncturing a superficial vein. In a 5-day, repeat-dose study of plasma EPO response, BAY 85-3934 was administered at doses of 0.5 mg/kg and 1.5 mg/kg at 0 h, 24 h, 48 h, 72 h, and 96 h. Blood samples were taken at 7 h, 31 h, 55 h, 79 h, 103 h, and 168 h. Erythropoietic parameters were also evaluated after a 2-week treatment period with s.c. administration of rhEPO (100 IU/kg twice weekly at days 1, 4, 8, and 11) and BAY 85-3934 (1.5 mg/kg) once daily.
EPO was measured in plasma samples taken from rodents using a commercial ELISA kit (R&D Systems), according to the manufacturer’s instructions. Relative plasma EPO levels were given in picograms per milliliter. In cynomolgus monkeys, EPO was measured using a combination anti-human EPO ELISAs (R&D Systems and Roche Diagnostics), with human EPO as a standard. Values were given as units per liter. For determination of plasma prorenin from rats, a commercial ELISA (Oxford Biomedical Research) was used according to the manufacturer’s instructions. Hemoglobin in rodent blood samples was determined on a Cell-Dyn 3700 apparatus (Abbott Diagnostics). BAY 85-3934 plasma concentrations were determined after protein precipitation with acetonitrile/ammonium acetate using an internal standard, followed by separation using HPLC/mass spectrometry.
In a further study, the efficacy of oral treatment with BAY 85-3934 was evaluated in comparison with rhEPO. Animals were administered a single dose of rhEPO (100 IU/kg) by s.c. injection or BAY 85-3934 (1.5 mg/kg, oral). After administration of rhEPO, plasma concentrations of rhEPO were more than 8-fold higher than the endogenous EPO levels induced by treatment with BAY 85-3934 (Fig. 3B). The area under the curve (AUC) of rhEPO was more than 6-fold higher than the AUC of endogenous EPO. […] Mean reticulocyte counts were 2-fold higher after treatment with rhEPO than after treatment with BAY 85-3934, but returned to baseline values 8 days after treatment cessation.

[2] = target: T1, PHD1 (Homo sapiens, UniProt Q96KS0); experiment: Prolyl hydroxylase assay (Eu-VBC binding to hydroxylated HIF-1α 556–574 peptide); assay type: biochemical; details: 20 µM 2-oxoglutarate, 10 µM Fe2+, 2 mM ascorbate
T1 construct: made in house; host or cells: Sf9 insect cells (baculovirus, pBacPAC transfer vectors)
T1 sequence (Q96KS0 whole entry): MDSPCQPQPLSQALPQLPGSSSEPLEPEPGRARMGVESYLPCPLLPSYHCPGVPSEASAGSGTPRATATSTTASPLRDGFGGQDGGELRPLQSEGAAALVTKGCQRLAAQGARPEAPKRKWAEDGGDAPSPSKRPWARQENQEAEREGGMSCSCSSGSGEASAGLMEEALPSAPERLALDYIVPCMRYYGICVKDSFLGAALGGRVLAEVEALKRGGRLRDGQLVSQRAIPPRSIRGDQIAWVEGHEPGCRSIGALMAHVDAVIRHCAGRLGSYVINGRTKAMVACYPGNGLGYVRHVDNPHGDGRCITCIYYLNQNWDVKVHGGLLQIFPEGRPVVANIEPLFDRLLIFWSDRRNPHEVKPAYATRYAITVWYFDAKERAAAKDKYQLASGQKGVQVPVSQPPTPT
Description: (§1) Recombinant human HIF-PHs were purified from Sf9 insect cell lysates. After infection with the recombinant virus stocks, generated via cloning of the respective cDNAs into pBacPAC transfer vectors (Clontech Laboratories), Sf9 cells were incubated for 48 h at 27°C with continuous shaking. Expression of the recombinant protein was confirmed by SDS-PAGE and western blot analysis of the expressed proteins. The lysate was centrifuged at 75,000 g at 4°C for 30 min and the supernatant containing the soluble HIF-PHs was incubated for 1 h at 2–8°C with CM Sepharose. After several wash steps, bound proteins were eluted from Sepharose using a linear NaCl gradient. […]
(§2) Hydroxylated biotinyl-HIF-1α 556–574 was incubated with Eu-VBC in 100 µl binding buffer (50 mM Tris [pH 7.5], 120 mM NaCl) for 60 min at room temperature. After washing six times with DELFIA wash buffer (PerkinElmer) and adding 100 µl enhancer solution (PerkinElmer), the amount of bound VBC was determined by measuring time-resolved fluorescence with a Tecan infinite M200 plate reader. Measurements were taken in triplicate or more, and results were expressed as means ± SEM. IC50 values were determined after curve fitting using GraphPad Prism software (GraphPad Software, La Jolla, CA, USA) applying the four-parameter logistic equation to the data sets. […]

[3] = target: T2, PHD3 (Homo sapiens, UniProt Q9H6Z9); experiment: as above; assay type: biochemical; details: 20 µM 2-oxoglutarate, 10 µM Fe2+, 2 mM ascorbate
T2 construct: made in house; host or cells: Sf9 insect cells (baculovirus, pBacPAC transfer vectors)
T2 sequence (Q9H6Z9 whole entry): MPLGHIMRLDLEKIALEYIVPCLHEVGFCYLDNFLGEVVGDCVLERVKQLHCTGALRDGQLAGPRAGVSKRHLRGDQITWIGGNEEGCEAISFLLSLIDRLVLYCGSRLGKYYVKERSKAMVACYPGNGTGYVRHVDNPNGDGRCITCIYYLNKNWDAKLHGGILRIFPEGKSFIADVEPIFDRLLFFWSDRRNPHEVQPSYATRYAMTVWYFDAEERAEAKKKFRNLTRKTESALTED
Description: as §1, §2

[4] = system: male Wistar rats; experiment: Single oral dose: plasma EPO and reticulocytes in healthy rats; assay type: in vivo, rat
Description: Male Wistar rats (240–340 g in body weight) were housed with five animals per cage for at least 1 week before experimentation. Blood samples from rats were collected under anesthesia (2% isoflurane in air) by puncturing the retro-orbital vein plexus with a glass capillary. […] The number of reticulocytes in 5 µl blood was counted after staining with thiazol orange (Becton Dickinson) according to the manufacturer’s instructions by FACS analysis on a BD FACSCalibur system (Becton Dickinson). […] The time-course of induction of EPO mRNA expression and plasma EPO was determined at baseline and 0.5 h, 1 h, 2 h, 4 h, 6 h, and 8 h after oral administration of a single dose of BAY 85-3934 (5 mg/kg). EPO was measured in plasma samples taken from rodents using a commercial ELISA kit (R&D Systems), according to the manufacturer’s instructions. Relative plasma EPO levels were given in picograms per milliliter. […] Experiments were conducted in male Wistar rats to assess the threshold doses for EPO induction and the erythropoietic activity of BAY 85-3934.

O=c1c(-n2ccnn2)c[nH]n1-c1cc(N2CCOCC2)ncn1 [BAY 85-3934, 2-[6-(morpholin-4-yl)pyrimidin-4-yl]-4-(1H-1,2,3-triazol-1-yl)-1,2-dihydro-3H-pyrazol-3-one]
mean gains of hemoglobin and red blood cells, both treatments compared ([1]; 14 days, rhEPO 100 IU/kg twice weekly s.c., BAY 85-3934 1.5 mg/kg once daily): almost completely congruent over time
induced EPO peak concentrations, factor within the normal physiological range ([1]; chronic once-daily administration): approximately 2 fold
IC50 [2]: 480 nM
IC50 [3]: 450 nM
time for which maximal plasma EPO concentrations were maintained ([4]; doses of 500 mg/kg and above): over 48 h
doses giving maximal EPO induction ([4]; single oral administration, data not shown): ≥ 500 mg/kg
doses giving statistically significant EPO induction ([4]; single oral administration, plasma EPO at 4 h): ≥ 1.25 mg/kg
doses giving a dose-dependent increase in the proportion of reticulocytes ([4]; single oral dose, 72 h): ≥ 1.25 mg/kg
